Assay results taken from patent US20090305225A1, “Inhibition of Creatine Uptake to Promote Weight Loss” (priority 2005, published 2009).

Tests used:
Fos (c-fos protein) = assay: Fos immunohistochemistry of hypothalamic sections 4 hours after icv injection; format: in vivo, rat; settings: 4 hours after icv 2 mg per rat, especially around the III ventricles
Experimental: In experiments involving immunohistochemistry, animals were injected icv with beta-GPA or with vehicle. Four hours after injection, animals were anesthetized with halothane and perfused through the left ventricle of the heart, initially with oxygenated Krebs buffer and then with ˜350 ml of 4% paraformaldehyde in 0.1M NaCl, pH 7.4 phosphate buffered saline (PBS). Brains were extracted from the skull, hypothalamic blocks dissected (by coronal cuts anterior and posterior to hypothalamic landmarks) and post-fixed in 4% paraformaldehyde solution at 4 degrees C. overnight. The following day, the blocks were transferred to 30% sucrose and incubated overnight at 4 degrees C. After freezing in Optimum Cutting Temperature (OCT) compound (Sakura, Japan), blocks were sectioned coronally at 40 um on a cryostat and sections individually floated in multi-well dishes filled with PBS. Sections were treated for 30 minutes with 0.4% Triton detergent in potassium PBS to aid in antibody penetration. Primary antibodies were added, the plates shaken gently for 1 hour at room temperature, then incubated at 4 degrees C. for 72 hours. Sections were then brought to room temperature while shaking and the primary antibody solution was removed by washing 3 times with PBS buffer. After removal of the last wash, the secondary antibody solution was added and the plates incubated for 2 hours at room temperature in the dark. Removal of the second antibody was achieved by washing three times with PBS buffer prior to mounting on subbed slides. They were allowed to dry, rewetted with PBS buffer and cover-slipped with Citifluor (Ted Pella, Reading, Calif.).
Fos studies were performed using indirect fluorescence visualization. The method utilized rabbit c-Fos-AB5 (1:2,000; Oncogene Research Products, Cambridge, Mass.) with goat anti-rabbit Cy3 (1:500; Jackson Immuno Research Laboratories, West Grove, Pa.) as the secondary antibody. […] Staining observed in experimental tissue was compared to that observed from experiment-matched negative controls. […] Immunoreactive Fos (Fos IR) was quantified by capturing images at 10× using MagnaFire 2.0 Software. These images were imported into the Metamorph 6.1 Software package and density of staining measured using Hue Saturation Intensity. Regions outlining nuclei were hand drawn with an electric pen and the total areas and stained areas measured to yield percentages of total areas with specific Fos-IR. The values for left and right dorsomedial nuclei in each rat were averaged, and the averages used to calculate means. In the case of the III ventricle, the entire image was used for quantification prior to calculating the percentage of the area with Fos-IR.

[1] = system: creatine transporter (CrT) mRNA; assay: Real-Time PCR of creatine transporter mRNA in hypothalami of beta-GPA-treated rats; format: in vivo, rat; settings: hypothalamus, normalized to L32 mRNA, not statistically significant, FIG. 4
Experimental: RNA was purified with […] (Promega) at 37 degrees C. for 30 min. The first strand of cDNA was synthesized by adding 1 ug of purified RNA from each sample to 20 ul containing MMLV reverse transcriptase (Invitrogen Life Tech). Creatine transporter (CrT) gene expression was further quantatified by Real-Time PCR using sense primer: 5′GGTAAGGGTGCAA GCCTTTG′ (SEQ ID NO: 1); antisense primer: 5′[…]-3′ (SEQ ID NO:2) and TaqMan probe: 5′[…]-3′ (SEQ ID NO: 3) (MMG-Biotech). The rat ribosomal protein L32 gene was used as a loading control. 1 ul of each cDNA sample derived from the 20 ul reverse transcription reaction and 1 ug RNA template was mixed with 24 ul master mixture (Perkin Elmer) in a 96-well TaqMan plate. The PCR was run in an ABI prism 7700 thermocycler (Applied Biosystems) at 50 degrees C. for 2 min and 95 degrees C. for 10 min, followed by 95 degrees C. for 15 sec and 60 degrees C. for 1 min for 40 cycles. The data were analyzed using software supplied with the ABI prism 7700.

[2] = Body weight and food intake after icv administration of beta-GPA in rats; format: in vivo, rat
Experimental: (§1) All animal handling was approved by and done in accordance with the guidelines and requirements of the University of Vermont Institutional Animal Care Use Committee. Adult male Sprague-Dawley rats (mycoplasma free; 200 g) were purchased from Charles River (Quebec, Canada) and housed in an air-conditioned (23+1 degree C.) room with lights on for 12 hours daily (starting at 6:00 a.m.) in the University of Vermont Animal Facility. Rats were housed singly in regular cages with free access to Purina Rat Chow (RMH 3000) and water for at least five days prior to surgery. Stereotactic surgery was used to implant chronic indwelling stainless steel cannulae into the third ventricle of the brain under fentanyl/droperidol anesthesia. Coordinates for cannula placement were obtained from the Konig Klippel stereotactic surgery atlas; with the nose bar 2.4 mm below the intraaural line and the vertical micrometer gantry tilted 9 degrees towards the animal, the coordinates were 4.9 mm dorsal to the intraaural line, 5 mm anterior to the intraaural line and 1.1 mm lateral to the midline. A minimum of 5 days later, animals were injected icv with beta-GPA (which was dissolved in saline at 50 degrees C. and the pH adjusted to 7.2-7.4 with dilute HCl) or other experimental compounds at the indicated concentrations. Control animals received equal volumes of vehicle. Volumes of icv injections never exceeded 10 ul per animal and were administered over 5-10 seconds. In some experiments, animals received two or more icv injections on the same or different days. Measures of body weight were made daily with a digital balance with a 6 second integration period to minimize the effects of animal movement. For experiments involving measurement of food intake, after stereotactic surgery animals were housed in individual Nalgene metabolic cages and given additional time for acclimation to the cage and feeding system. Food intakes were measured using powdered rat chow with daily weigh-backs as indicated.

[3] = format: physicochemical
Experimental: as §1, with “Control animals received equal volumes of vehicle. Volumes of icv injections never exceeded 10 ul per animal and were administered over 5-10 seconds. In some experiments, animals received two or more icv injections on the same or different days. Measures of body weight were made daily with a digital balance with a 6 second integration period to minimize the effects of animal movement. For experiments involving measurement of food intake, after stereotactic surgery animals were housed in individual Nalgene metabolic cages and given additional time for acclimation to the cage and feeding system.” left out, “indicated. […]” for “indicated.”

[4] = icv 1 mg, 2 mg or 3 mg per animal, FIG. 2
[5] = icv 2 mg/rat, single dose, FIG. 1

N=C(N)NCCC(=O)O [beta-GPA, 3-guanidopropionic acid]
Fos IR (Fos (c-fos protein)): increased | relative units of CrT gene expression versus vehicle-treated animals [1]: slight decrease | body weight [2, 4]: decreased in a dose-dependent fashion | food intake [2, 4]: decreased in a dose-dependent fashion | time until body weight and food intake returned to values indistinguishable from vehicle-treated animals ([2]; icv 2 mg/rat, single dose): four | body weight [2, 5]: modest decreases | food intake [2, 5]: modest decreases | effect of icv dose (body weight and food intake) ([2]; icv, 0.04 mg, five-fold lower dose, dose-ranging study): without effect | magnitude of body weight and food intake effects after a second identical dosage ([2]; second icv dose seven days after the first, FIG. 2): enhanced considerably | usability of a five-fold greater icv dose (10 mg) [3]: not usable because of solubility dictates
